Columns and labels:
Type in all cases: functional
Avena sterilis [1] = experiment: Herbicidal activity against Avena sterilis accession P18 assessed as weed survival at 1 times field recommended herbicide dose
Avena sterilis [2] = experiment: Herbicidal activity against Avena sterilis accession P16 assessed as weed survival at 1 times field recommended herbicide dose
Avena sterilis [3] = experiment: Herbicidal activity against Avena sterilis accession P14 assessed as weed survival at 1 times field recommended herbicide dose
Avena sterilis [4] = experiment: Herbicidal activity against Avena sterilis accession P11 assessed as weed survival at 1 times field recommended herbicide dose
Avena sterilis [5] = experiment: Herbicidal activity against Avena sterilis accession P07 assessed as weed survival at 1 times field recommended herbicide dose
Avena sterilis [6] = experiment: Herbicidal activity against Avena sterilis accession P21S assessed as weed survival at 1/32 times field recommended herbicide dose
Avena sterilis [7] = experiment: Herbicidal activity against Avena sterilis accession P19S assessed as weed survival at 1/32 times field recommended herbicide dose
Avena sterilis [8] = experiment: Herbicidal activity against Avena sterilis accession P13S assessed as weed survival at 1/32 times field recommended herbicide dose
Avena sterilis [9] = experiment: Herbicidal activity against Avena sterilis accession P10S assessed as weed survival at 1/32 times field recommended herbicide dose
Avena sterilis [10] = experiment: Herbicidal activity against Avena sterilis accession P06S assessed as weed survival at 1/32 times field recommended herbicide dose
Avena sterilis [11] = experiment: Herbicidal activity against Avena sterilis accession P22 assessed as weed survival at 32 times field recommended herbicide dose
Avena sterilis [12] = experiment: Herbicidal activity against Avena sterilis accession P05 assessed as weed survival at 1 times field recommended herbicide dose
Avena sterilis [13] = experiment: Herbicidal activity against Avena sterilis accession P02 assessed as weed survival at 1 times field recommended herbicide dose
Avena sterilis [14] = experiment: Herbicidal activity against Avena sterilis accession P01 assessed as weed survival at 1 times field recommended herbicide dose
Avena sterilis [15] = experiment: Herbicidal activity against Avena sterilis accession P21S assessed as induction of weed mortality
Avena sterilis [16] = experiment: Herbicidal activity against Avena sterilis accession P19S assessed as induction of weed mortality
Avena sterilis [17] = experiment: Herbicidal activity against Avena sterilis accession P10S assessed as induction of weed mortality
Avena sterilis [18] = experiment: Herbicidal activity against Avena sterilis accession P06S assessed as induction of weed mortality
Avena sterilis [19] = experiment: Herbicidal activity against Avena sterilis accession P22 assessed as induction of weed mortality
Avena sterilis [20] = experiment: Herbicidal activity against Avena sterilis accession P16 assessed as induction of weed mortality
Avena sterilis [21] = experiment: Herbicidal activity against Avena sterilis accession P14 assessed as induction of weed mortality
Avena sterilis [22] = experiment: Herbicidal activity against Avena sterilis accession P09 assessed as induction of weed mortality
Avena sterilis [23] = experiment: Herbicidal activity against Avena sterilis accession P08 assessed as induction of weed mortality
Avena sterilis [24] = experiment: Herbicidal activity against Avena sterilis accession P02 assessed as induction of weed mortality
Avena sterilis [25] = experiment: Herbicidal activity against Avena sterilis accession P01 assessed as induction of weed mortality
Avena sterilis [26] = experiment: Herbicidal activity against Avena sterilis accession P17 assessed as weed survival at 8 times field recommended herbicide dose
Avena sterilis [27] = experiment: Herbicidal activity against Avena sterilis accession P16 assessed as weed survival at 8 times field recommended herbicide dose
Avena sterilis [28] = experiment: Herbicidal activity against Avena sterilis accession P15 assessed as weed survival at 8 times field recommended herbicide dose
Avena sterilis [29] = experiment: Herbicidal activity against Avena sterilis accession P14 assessed as weed survival at 8 times field recommended herbicide dose
Avena sterilis [30] = experiment: Herbicidal activity against Avena sterilis accession P12 assessed as weed survival at 8 times field recommended herbicide dose
Avena sterilis [31] = experiment: Herbicidal activity against Avena sterilis accession P16 assessed as weed survival at 32 times field recommended herbicide dose
Avena sterilis [32] = experiment: Herbicidal activity against Avena sterilis accession P12 assessed as weed survival at 32 times field recommended herbicide dose
Avena sterilis [33] = experiment: Herbicidal activity against Avena sterilis accession P08 assessed as weed survival at 32 times field recommended herbicide dose
Avena sterilis [34] = experiment: Herbicidal activity against Avena sterilis accession P07 assessed as weed survival at 32 times field recommended herbicide dose
Avena sterilis [35] = experiment: Herbicidal activity against Avena sterilis accession P01 assessed as weed survival at 32 times field recommended herbicide dose
Avena sterilis [36] = experiment: Herbicidal activity against Avena sterilis accession P10S assessed as weed survival at 1/16 times field recommended herbicide dose
Avena sterilis [37] = experiment: Herbicidal activity against Avena sterilis accession P06S assessed as weed survival at 1/16 times field recommended herbicide dose
Avena sterilis [38] = experiment: Herbicidal activity against Avena sterilis accession P20 assessed as weed survival at 16 times field recommended herbicide dose
Avena sterilis [39] = experiment: Herbicidal activity against Avena sterilis accession P17 assessed as weed survival at 16 times field recommended herbicide dose
Avena sterilis [40] = experiment: Herbicidal activity against Avena sterilis accession P14 assessed as weed survival at 16 times field recommended herbicide dose
Avena sterilis [41] = experiment: Herbicidal activity against Avena sterilis accession P04 assessed as weed survival at 16 times field recommended herbicide dose
Avena sterilis [42] = experiment: Herbicidal activity against Avena sterilis accession P01 assessed as weed survival at 16 times field recommended herbicide dose
Avena sterilis [43] = experiment: Herbicidal activity against Avena sterilis accession P22 assessed as weed survival at 8 times field recommended herbicide dose
Avena sterilis [44] = experiment: Herbicidal activity against Avena sterilis accession P20 assessed as weed survival at 8 times field recommended herbicide dose
Avena sterilis [45] = experiment: Herbicidal activity against Avena sterilis accession P08 assessed as weed survival at 8 times field recommended herbicide dose
Avena sterilis [46] = experiment: Herbicidal activity against Avena sterilis accession P03 assessed as weed survival at 8 times field recommended herbicide dose
Avena sterilis [47] = experiment: Herbicidal activity against Avena sterilis accession P13S assessed as weed survival at 1/4 times field recommended herbicide dose
Avena sterilis [48] = experiment: Herbicidal activity against Avena sterilis accession P10S assessed as weed survival at 1/4 times field recommended herbicide dose
Avena sterilis [49] = experiment: Herbicidal activity against Avena sterilis accession P20 assessed as weed survival at 4 times field recommended herbicide dose
Avena sterilis [50] = experiment: Herbicidal activity against Avena sterilis accession P18 assessed as weed survival at 4 times field recommended herbicide dose
Avena sterilis [51] = experiment: Herbicidal activity against Avena sterilis accession P16 assessed as weed survival at 4 times field recommended herbicide dose
Avena sterilis [52] = experiment: Herbicidal activity against Avena sterilis accession P14 assessed as weed survival at 4 times field recommended herbicide dose
Avena sterilis [53] = experiment: Herbicidal activity against Avena sterilis accession P12 assessed as weed survival at 4 times field recommended herbicide dose
Avena sterilis [54] = experiment: Herbicidal activity against Avena sterilis accession P09 assessed as weed survival at 4 times field recommended herbicide dose
Avena sterilis [55] = experiment: Herbicidal activity against Avena sterilis accession P05 assessed as weed survival at 4 times field recommended herbicide dose
Avena sterilis [56] = experiment: Herbicidal activity against Avena sterilis accession P03 assessed as weed survival at 4 times field recommended herbicide dose
Avena sterilis [57] = experiment: Herbicidal activity against Avena sterilis accession P01 assessed as weed survival at 4 times field recommended herbicide dose
Avena sterilis [58] = experiment: Herbicidal activity against Avena sterilis accession P22 assessed as weed survival at 1 times field recommended herbicide dose

CCO/N=C(\CC)C1=C(O)CC(c2c(C)cc(C)cc2C)CC1=O (stereo not drawn) [TRALKOXYDIM]
Survival (Avena sterilis [1]): 20% | Survival (Avena sterilis [2]): 77% | Survival (Avena sterilis [3]): 0% | Survival (Avena sterilis [4]): 17% | Survival (Avena sterilis [5]): 23% | Survival (Avena sterilis [6]): 100% | Survival (Avena sterilis [7]): 100% | Survival (Avena sterilis [8]): 93% | Survival (Avena sterilis [9]): 97% | Survival (Avena sterilis [10]): 80% | Survival (Avena sterilis [11]): 0% | Survival (Avena sterilis [12]): 40% | Survival (Avena sterilis [13]): 77% | Survival (Avena sterilis [14]): 60% | GR50 (Avena sterilis [15]): 84 gAi/ha | GR50 (Avena sterilis [16]): 11 gAi/ha | GR50 (Avena sterilis [17]): 29 gAi/ha | GR50 (Avena sterilis [18]): 32 gAi/ha | GR50 (Avena sterilis [19]): 434 gAi/ha | GR50 (Avena sterilis [20]): 907 gAi/ha | GR50 (Avena sterilis [21]): <400 gAi/ha | GR50 (Avena sterilis [22]): 532 gAi/ha | GR50 (Avena sterilis [23]): 781 gAi/ha | GR50 (Avena sterilis [24]): 1073 gAi/ha | GR50 (Avena sterilis [25]): 766 gAi/ha | Survival (Avena sterilis [26]): 7% | Survival (Avena sterilis [27]): 17% | Survival (Avena sterilis [28]): 20% | Survival (Avena sterilis [29]): 0% | Survival (Avena sterilis [30]): 0% | Survival (Avena sterilis [31]): 0% | Survival (Avena sterilis [32]): 0% | Survival (Avena sterilis [33]): 0% | Survival (Avena sterilis [34]): 0% | Survival (Avena sterilis [35]): 0% | Survival (Avena sterilis [36]): 40% | Survival (Avena sterilis [37]): 60% | Survival (Avena sterilis [38]): 17% | Survival (Avena sterilis [39]): 0% | Survival (Avena sterilis [40]): 0% | Survival (Avena sterilis [41]): 60% | Survival (Avena sterilis [42]): 0% | Survival (Avena sterilis [43]): 20% | Survival (Avena sterilis [44]): 40% | Survival (Avena sterilis [45]): 17% | Survival (Avena sterilis [46]): 20% | Survival (Avena sterilis [47]): 20% | Survival (Avena sterilis [48]): 20% | Survival (Avena sterilis [49]): 80% | Survival (Avena sterilis [50]): 20% | Survival (Avena sterilis [51]): 30% | Survival (Avena sterilis [52]): 0% | Survival (Avena sterilis [53]): 0% | Survival (Avena sterilis [54]): 20% | Survival (Avena sterilis [55]): 40% | Survival (Avena sterilis [56]): 60% | Survival (Avena sterilis [57]): 43% | Survival (Avena sterilis [58]): 57%

Source: ChEMBL document CHEMBL3046559, “Sterile oat (Avena sterilis L.) cross-resistance profile to ACCase-inhibiting herbicides in Greece” (2012)
